The values below come from US8921388B2, “Dihydroxypyrimidine carbonic acid derivatives and their use in the treatment, amelioration or prevention of a viral disease” (priority 2012, dated 2014).

The structures appear in SMILES notation. pIC50: −log10 of the molar value.

One assay concerns the target T1, influenza A virus (IAV) PA-Nter fragment (amino acids 1-209) harbouring the influenza endonuclease activity (Influenza A virus, UniProt P31343).
T1 construct: PA-Nter fragment (amino acids 1-209); made in house
In words: FRET endonuclease activity assay. As to conditions: @ 10 μM; compound-treated compared to untreated. Type of assay: biochemical.
On to `O=C(NCc1ccc(Cl)cc1)c1nc(Cc2ccccc2Br)nc(O)c1O`, for which the “FRET % reduction of v0” value amounted to 37% @ 10 μM. For `COC(=O)c1nc(CC2CCCCC2)n(C)c(=O)c1O`, the “FRET % reduction of v0” value is reported as 25% @ 10 μM. Take `COC(=O)c1c(O)c(=O)nc(Cc2ccccc2Br)n1Cc1ccccc1`: the “FRET % reduction of v0” value turned out to be 23% @ 10 μM.

The assay is the same for the next values; noted with them: calculated from initial reaction velocities (v0); 0.5 μM PA-Nter, 1.6 μM RNA substrate.
Regarding `COC(=O)c1nc(CC2(c3ccccc3)CCCC2)nc(O)c1O`, the pIC50 (usually the IC50 on a negative log10 scale, so that one unit is a factor of ten) is 6.39. Consider `NC(=O)c1nc(CC2(c3ccccc3)CCCC2)nc(O)c1O`, for which the pIC50 was 6.62.

Turning to `O=C(NCc1ccccc1)c1nc(CC2(c3ccccc3)CCCC2)nc(O)c1O`, the pIC50 was 5.96. `O=C(O)c1nc(Cc2ccccc2-c2ccccc2)nc(O)c1O`: the pIC50 is 7.40. Still for that read-out and setting: as for `O=C(NCc1ccccc1)c1nc(Cc2ccccc2-c2ccccc2)nc(O)c1O`, the figure is 4.80; as for `O=C(O)c1nc(CC2(c3ccccc3)CCCC2)nc(O)c1O`, 7.10. For `CNC(=O)c1nc(CC2(c3ccccc3)CCCC2)nc(O)c1O`, the pIC50 was 6.85.

Regarding `CNC(=O)c1nc(Cc2ccccc2-c2ccccc2)nc(O)c1O`, the pIC50 is 6.18. With `CC(C)NC(=O)c1nc(Cc2ccccc2-c2ccccc2)nc(O)c1O`, the negative logarithm of the IC50 (pIC50) was 5.09. Take `O=C(NCc1ccc(F)cc1)c1nc(Cc2ccccc2-c2ccccc2)nc(O)c1O`: the pIC50 was 5.77. `O=C(NCCc1ccccc1)c1nc(Cc2ccccc2-c2ccccc2)nc(O)c1O`: the negative-log IC50 (pIC50) is 5.42.

Take `O=C(c1nc(Cc2ccccc2-c2ccccc2)nc(O)c1O)N1CCCC1`: the pIC50 was 5.96.

On to `O=C(O)c1nc(CC(c2ccccc2)c2ccccc2)nc(O)c1O`, for which the pIC50 is 5.60. As to `O=C(O)c1nc(Cc2ccc(F)cc2Br)nc(O)c1O`, the pIC50 is 6.74.

`COC(=O)c1nc(Cc2ccccc2-c2ccccc2C)nc(O)c1O`: the pIC50 was 6.92. In the case of `CCCNC(=O)c1nc(Cc2ccccc2-c2ccccc2)nc(O)c1O`, the pIC50 is 5.06. For `CCOC(=O)c1nc(Cc2cncn2Cc2ccccc2)nc(O)c1O`, the pIC50 was 5.02.

Consider `COC(=O)c1nc(Cc2ccc(F)cc2Br)nc(O)c1O`, for which the pIC50 is 5.82. As to `NC(=O)c1nc(Cc2ccc(F)cc2Br)nc(O)c1O`, the pIC50 is 5.57. Turning to `COC(=O)c1nc(Cc2ccccc2-c2cccc(C)c2)nc(O)c1O`, the pIC50 is 6.46. On the same count and under the same terms, with `Cc1cccc(-c2ccccc2Cc2nc(C(N)=O)c(O)c(=O)[nH]2)c1` the figure was 6.26; with `CCOC(=O)c1nc(Cc2ccccc2-c2cc(C)ccc2C)nc(O)c1O`, 6.66; with `CCOC(=O)c1nc(CC2CCCCC2)nc(O)c1O`, 5.49. `COC(=O)c1nc(Cc2ccccc2Br)nc(O)c1OC(C)=O`: the negative-log IC50 (pIC50) was 5.10. For the compound `CNC(=O)c1nc(Cc2ccccc2Br)nc(O)c1O`, the pIC50 is 5.24. `Cc1cccc(-c2ccccc2Cc2nc(O)c(O)c(C(=O)O)n2)c1`: the pIC50 is 6.64. For `Cc1ccc(C)c(-c2ccccc2Cc2nc(O)c(O)c(C(=O)O)n2)c1`, the pIC50 is 7.52. Still for that read-out and setting: with `CNC(=O)c1nc(CC2CCCCC2)nc(O)c1O` the figure was 5.19. As to `CNC(=O)c1nc(Cc2ccccc2-c2cc(C)ccc2C)nc(O)c1O`, the pIC50 is 6.28. Still for that read-out and setting: as for `CC(C)NC(=O)c1nc(Cc2cccc(Br)c2)nc(O)c1O`, the figure is 4.64; as for `O=C(O)c1nc(CC2CCCCC2)nc(O)c1O`, 6.68. Same read-out and setting: as for `COC(=O)c1nc(Cc2ccccc2-c2cc(C)ccc2C)nc(O)c1O`, the figure is 6.82; as for `O=C(O)c1nc(Cc2ccccc2Br)nc(O)c1O`, 6.60. Same read-out and setting: with `Cc1ccccc1Cc1nc(O)c(O)c(C(=O)O)n1` the figure was 6.57; with `O=C(NCc1ccc(F)cc1)c1nc(Cc2ccccc2Br)nc(O)c1O`, 4.57; with `Cc1ccc(C)c(-c2ccccc2Cc2nc(O)c(O)c(C(=O)OC(C)(C)C)n2)c1`, 5.96. Turning to `O=C(NCc1ccc(Cl)cc1)c1nc(Cc2ccccc2-c2ccccc2)nc(O)c1O`, the pIC50 was 5.74.

Turning to `Cc1ccccc1-c1ccccc1Cc1nc(O)c(O)c(C(=O)O)n1`, the pIC50 was 6.62. For `O=C(O)c1nc(Cc2cc(C(F)(F)F)ccc2Br)nc(O)c1O`, the pIC50 was 6.80. As to `CNC(=O)c1nc(Cc2ccccc2-c2ccccc2)n(C)c(=O)c1O`, the pIC50 is 4.64. On to `Cn1c(CC2(c3ccccc3)CCCC2)nc(C(=O)O)c(O)c1=O`, for which the pIC50 is 6.59. For the compound `Cn1c(Cc2ccccc2-c2ccccc2)nc(C(=O)O)c(O)c1=O`, the pIC50 is 5.89. Still for that read-out and setting: with `Cn1c(Cc2ccccc2-c2ccccc2)nc(C(N)=O)c(O)c1=O` the figure was 5.89; with `CC(C)NC(=O)c1nc(Cc2ccccc2-c2ccccc2)n(C)c(=O)c1O`, 4.85; with `CNC(=O)c1nc(CC2(c3ccccc3)CCCC2)n(C)c(=O)c1O`, 6.39. The same measure, in the same setting: as for `CNC(=O)c1nc(NS(=O)(=O)Cc2cccc(C)c2)n(C)c(=O)c1O`, the figure is 5.17; as for `CNC(=O)c1nc(NS(=O)(=O)Cc2ccc(C)cc2)n(C)c(=O)c1O`, 4.89; as for `Cn1c(NS(=O)(=O)Cc2ccc(Cl)cc2)nc(C(=O)O)c(O)c1=O`, 6.27.

In the case of `O=C(O)c1c(O)c(=O)nc(Cc2ccccc2)n1Cc1ccccc1`, the pIC50 was 5.42. `O=C(O)c1c(O)c(=O)nc(Cc2ccccc2Br)n1Cc1ccccc1`: the pIC50 is 5.24.

In the case of `CNC(=O)c1nc(NS(=O)(=O)Cc2ccccc2)n(C)c(=O)c1O`, the pIC50 was 5.52. In the case of `CNC(=O)c1nc(NS(=O)(=O)Cc2ccc(Cl)cc2)n(C)c(=O)c1O`, the pIC50 is 5.24. Turning to `COC(=O)c1c(O)c(=O)nc(Cc2ccccc2)n1Cc1ccccc1`, the negative-log IC50 (pIC50) is 4.72.
